Measured values taken from patent US20080261263A1, “In Vitro Evaluation of Micro-Organisms and Their Antimicrobial Agent Susceptibilities” (SYFT Technologies Limited, priority 2005, published 2008).
Converted amounts (≈) assume the structure as drawn.

Experiments:
S. aureus [1] = assay: Predetermined minimal inhibitory concentration (MIC) for S. aureus; format: cell-based; conditions: Staphylococcus aureus
S. aureus [2] = assay: Effect of antibiotic on S. aureus blood culture headspace VC production (SIFT-MS SIMscan); format: cell-based, Staphylococcus aureus; conditions: for Ammonia mean concentration / DMS mean concentration: S. aureus 6 h; for Aminoacetophenone mean concentration / Ethanol mean concentration / Formaldehyde mean concentration: S. aureus 22 h; for Inhibition of aminoacetophenone, ethanol and formaldehyde: S. aureus 22 hours; for Effect on production of ammonia and dimethylsulfide by S. aureus: six hours, flucloxacillin above and below its MIC
Excerpt: (§1) In one form of the method headspace atmospheres are introduced above conventional Biomerieux BacT/ALERT® aerobic or anaerobic blood cultures at a controlled rate into the flow tube precursor ion stream. The count rates of the resulting product ions are then to be determined by a “downstream” quadrupole and particle multiplier detector. Operating in full scan mode, the detector quadrupole is scanned over a predetermined m/z range to obtain a spectrum of product ions. In selected ion mode (SIMscan) the count rate of selected product ions is determined as the downstream […] is switched to and remains on selected m/zs.
(§2) Standard Biomerieux (Durham, N.C., USA) BacT/ALERT® SA, FA and SN disposable, plastic culture bottles containing 40 ml of culture medium were used throughout the experiments. 9 ml of healthy, uninfected human blood and 1 ml aliquots of antibiotics prepared in sterile water were added (in the relevant experiments) as required to each bottle prior to the addition of 1 ml of bacterial species suspended in sterile physiological saline.
(§3) SIFT-MS mass scan studies comparing 24 hour BacT/ALERT®SA blood culture headspace VCs with medium+blood controls identified a test panel of SIM VC analytes suitable for the five bacterial species tested. These bacterial metabolites included acetaldehyde, acetic acid, acetone, 2-aminoacetophenone, ammonia, dimethyldisulfide (DMDS), dimethylsulfide (DMS), formaldehyde, ethanol, hydrogen sulfide, indole, methanethiol, pentanols and propanol. […] absolute concentration measurements in parts per billion (ppb v/v) were integrated, averaged and recorded separately for acetaldehyde, acetic acid, ethanol, acetone, ammonia, hydrogen sulfide, DMS and DMDS during each 30 second SIMscan for each triplicate culture of the five test species after incubation in BacT/ALERT aerobic media. The results are recorded in Table 1 (below).
(§4) Approximately 10^3 CFU E. coli or S. aureus were inoculated into Biomerieux BacT/ALERT® SA bottles including 9 ml of fresh uninfected blood. Each bacterial species was incubated in triplicate either alone or in the presence of antibiotics above or below their predetermined minimal inhibitory concentrations (MIC).
(§5) Gentamicin was added to E. coli cultures at either 2 μg/ml or 0.05 μg/ml (MIC 0.25-1 μg/m)l. Flucloxacillin was added to S. aureus cultures at 2 μg/ml or 0.05 μg/ml (MIC 0.12-0.5 μg/ml).
(§6) The mean, minima and maxima integrated headspace analyte concentration measurements obtained from E. coli and S. aureus cultures are compared in Tables 8 and 9.

E. coli [3] = assay: Predetermined minimal inhibitory concentration (MIC) for E. coli; format: cell-based, Escherichia coli
E. coli [4] = assay: Effect of antibiotic on E. coli blood culture headspace VC production (SIFT-MS SIMscan); format: cell-based, Escherichia coli
Excerpt: as §1, §2, §3, §4, §5, §6

[5] = flucloxacillin <MIC (0.05 μg/ml)
[6] = E. coli 6 h, gentamicin <MIC (0.05 μg/ml)
[7] = E. coli 6 h, gentamicin >MIC (2 μg/ml)
[8] = E. coli 22 h, gentamicin <MIC (0.05 μg/ml)
[9] = E. coli 22 h, gentamicin >MIC (2 μg/ml)

Molecule: Cc1onc(-c2c(F)cccc2Cl)c1C(=O)N[C@@H]1C(=O)N2[C@@H]1SC(C)(C)[C@@H]2C(=O)O [Flucloxacillin]
- MIC (S. aureus [1]): 0.12 to 0.5 µg/mL (≈ 0.264 to 1.1 µM)
- Ammonia mean concentration (S. aureus [2]; [5]): 40 ppb
- DMS mean concentration (S. aureus [2]; [5]): 30 ppb
- Ammonia mean concentration (S. aureus [2]; flucloxacillin >MIC (2 μg/ml)): 50 ppb
- DMS mean concentration (S. aureus [2]; flucloxacillin >MIC (2 μg/ml)): 10 ppb
- Aminoacetophenone mean concentration (S. aureus [2]; [5]): 200 ppb
- Ethanol mean concentration (S. aureus [2]; [5]): 7500 ppb
- Formaldehyde mean concentration (S. aureus [2]; [5]): 60 ppb
- Aminoacetophenone mean concentration (S. aureus [2]; flucloxacillin >MIC (2 μg/ml)): 60 ppb
- Ethanol mean concentration (S. aureus [2]; flucloxacillin >MIC (2 μg/ml)): 1900 ppb
- Formaldehyde mean concentration (S. aureus [2]; flucloxacillin >MIC (2 μg/ml)): 20 ppb
- Inhibition of aminoacetophenone, ethanol and formaldehyde (S. aureus [2]; flucloxacillin above its MIC, p<0.01): notable
- Inhibition of aminoacetophenone, ethanol and formaldehyde (S. aureus [2]; lower flucloxacillin concentration (below MIC)): not inhibitory
- Effect on production of ammonia and dimethylsulfide by S. aureus (S. aureus [2]): significantly reduced
- Effect on production of ammonia and dimethylsulfide by S. aureus (S. aureus [2]; listed as flucloxacillin): inhibited to uninoculated, antibiotic-containing control levels

Molecule: Gentamicin
- MIC (E. coli [3]): 0.25 to 1 µg/mL
- Hydrogen sulfide mean concentration (E. coli [4]; [6]): 0 ppb
- Pentanols mean concentration (E. coli [4]; [6]): 120 ppb
- Hydrogen sulfide mean concentration (E. coli [4]; [7]): 0 ppb
- Pentanols mean concentration (E. coli [4]; [7]): 90 ppb
- Acetaldehyde mean concentration (E. coli [4]; [8]): 3300 ppb
- Acetic acid mean concentration (E. coli [4]; [8]): 1950 ppb
- Aminoacetophenone mean concentration (E. coli [4]; [8]): 900 ppb
- DMDS mean concentration (E. coli [4]; [8]): 380 ppb
- DMS mean concentration (E. coli [4]; [8]): 30 ppb
- Ethanol mean concentration (E. coli [4]; [8]): 42000 ppb
- Formaldehyde mean concentration (E. coli [4]; [8]): 140 ppb
- Hydrogen sulfide mean concentration (E. coli [4]; [8]): 1030 ppb
- Indole mean concentration (E. coli [4]; [8]): 210 ppb
- Methanethiol mean concentration (E. coli [4]; [8]): 1400 ppb
- Pentanols mean concentration (E. coli [4]; [8]): 220 ppb
- Propanol mean concentration (E. coli [4]; [8]): 5800 ppb
- Acetaldehyde mean concentration (E. coli [4]; [9]): 2700 ppb
- Acetic acid mean concentration (E. coli [4]; [9]): 600 ppb
- Aminoacetophenone mean concentration (E. coli [4]; [9]): 280 ppb
- DMDS mean concentration (E. coli [4]; [9]): 190 ppb
- DMS mean concentration (E. coli [4]; [9]): 30 ppb
- Ethanol mean concentration (E. coli [4]; [9]): 16000 ppb
- Formaldehyde mean concentration (E. coli [4]; [9]): 110 ppb
- Hydrogen sulfide mean concentration (E. coli [4]; [9]): 6 ppb
- Indole mean concentration (E. coli [4]; [9]): 110 ppb
- Methanethiol mean concentration (E. coli [4]; [9]): 150 ppb
- Pentanols mean concentration (E. coli [4]; [9]): 90 ppb
- Propanol mean concentration (E. coli [4]; [9]): 1700 ppb
- Effect on production of all headspace VCs (except formaldehyde) (E. coli [4]; E. coli 22 hours, gentamicin above its MIC, p<0.005): significantly inhibited
- Effect on most analytes (except hydrogen sulfide and methanethiol) (E. coli [4]; E. coli 22 hours, gentamicin below its MIC, p<0.01): Significant (p<0.01) reductions
- Effect on production of hydrogen sulfide by E. coli (E. coli [4]; six hours, both gentamicin concentrations): eliminated
